How the values were obtained:
tumor necrosis factor-α = assay: Content of TNF-α in culture solution of alcohol-treated HepG2 cells (ELISA); assay type: cell-based, human; conditions: 1, 5, 10 μg/ml, 1 h before 100 mM alcohol for 24 h; dose-dependent; effect equivalent to curcumin 10 μg/ml
Experimental: (§1) According to the principle of Griess reaction, nitrite accumulated from the supernatant liquid cultivated by cells and mouse serum is measured to obtain indirectly the generation of nitric oxide. The supernatant liquid cultivated by cells and tumor necrosis factor-α in the serum are measured using the currently available human TNF-αELISA kit. In brief, aforementioned HepG2 cells of […] are separately cultivated in 96-well plate, and then added with lucidone and alcohol to cultivate them for 24 h. Next, the culture solution is diluted by the work reagent of aforementioned kit by a percentage of 1:2. Then, every 100 μl diluted culture solution is subject to ELISA reaction as per the operating instruction of aforementioned kit, and then a spectrometer is used to detect the absorbance at wavelength 450 nm so as to judge the content of tumor necrosis factor-α; in the mouse experiment, the mouse serum is diluted properly and then the content of tumor necrosis factor-α is tested as per the operating instruction of aforementioned kit. […]
(§2) The content of ALT, AST and tumor necrosis factor-α (TNF-α) in the tested culture solution of HepG2 cells is measured (refer to preferred embodiment 1 [test of ALT and AST concentration] and [measurement of tumor necrosis factor-α ]).

[1] = tested on: mouse suffered by hepatitis arising from alcohol; assay: Content of ALT, AST, nitric oxide and TNF-α in serum, mouse model of hepatitis arising from alcohol; assay type: in vivo; conditions: lucidone 100 mg/Kg/day i.p. 7 d, mean ± SD
Source text: (§3) The experimental mouse is selected from 4-week male mouse of ICR family (25±5 g) in Charles River (Taipei, Taiwan). Prior to the experiment, the experimental mouse will be bred for at least 1 week in constant temperature lab conditions wherein unlimited feedstock and water are supplied. All animals shall be governed by the Guide for the Care and Use of Laboratory Animals and relevant animal protection acts of Taiwan, and approved by local ethics commissions. 80% alcohol or lucidone is applied to aforementioned experimental mouse (1 mL/Kg) by following methods: alcohol is applied orally, or by intra-peritoneal injection, or alcohol and lucidone are applied orally, or by intra-peritoneal injection.
(§4) A currently available test kit (Randox Laboratories, Antrim, UK) is applied to test the concentration of culture solution after cultivation of HepG2 cells as well as the concentration of ALT and AST in mouse serum. In brief, the experiment is designed to obtain the culture solution after cultivation of HepG2 cells and the serum of experimental mouse by the recommended test procedures.
According to the principle of Griess reaction, nitrite accumulated from the supernatant liquid cultivated by cells and mouse serum is measured to obtain indirectly the generation of nitric oxide. The supernatant liquid cultivated by cells and tumor necrosis factor-α in the serum are measured using the currently available human TNF-αELISA kit. In brief, aforementioned HepG2 cells of […] are separately cultivated in 96-well plate, and then added with lucidone and alcohol to cultivate them for 24 h. Next, the culture solution is diluted by the work reagent of aforementioned kit by a percentage of 1:2. Then, every 100 μl diluted culture solution is subject to ELISA reaction as per the operating instruction of aforementioned kit, and then a spectrometer is used to detect the absorbance at wavelength 450 nm so as to judge the content of tumor necrosis factor-α; in the mouse experiment, the mouse serum is diluted properly and then the content of tumor necrosis factor-α is tested as per the operating instruction of aforementioned kit.
(§5) The aforementioned mouse are grouped and then applied with lucidone for 7 d at a dose of 100 mg/Kg/day by means of intra-peritoneal injection, and at the 7th day, applied with lucidone and then applied with 80% alcohol orally or by intra-peritoneal injection at a dose of 1 ml/Kg, one time every 12 h with 3 doses; of which, the mouse of the control group is fed with 1% DMSO dissolved in saline solution.
Take out the serum of mouse suffered by hepatitis arising from alcohol as per aforementioned experimental design, and determine the content of ALT, AST, nitric oxide and TNF-α by the experimental methods in preferred embodiment 1.

HepG2 cells [2] = assay: Lipid peroxidation degree (MDA) in alcohol-treated HepG2 cells; assay type: cell-based, human; conditions: lucidone 1, 5, 10 μg/ml or curcumin 10 μg/ml, 1 h before 100 mM alcohol for 24 h
HO-1 [3] = assay: HO-1 protein expression in HepG2 cells (Western blotting); assay type: cell-based, human; conditions: lucidone 1, 5, 10 μg/ml or curcumin 10 μg/ml, with 100 mM alcohol
Nrf-2 and ARE = assay: Bonding activity of Nrf-2 and ARE in HepG2 cells (EMSA); assay type: cell-based, human; conditions: 1, 5, 10 μg/ml with 100 mM alcohol, dose-dependent
HepG2 cells [4] = assay: Glutathione content in alcohol-treated HepG2 cells; assay type: cell-based, human; conditions: lucidone 1, 5, 10 μg/ml or curcumin 10 μg/ml, 1 h before 100 mM alcohol for 24 h
Experimental: A currently available GSH-96-well plate colorimetric GSH assay kit, Oxis International, Foster City, Calif., USA) is used to measure the content of glutathione (GSH). In brief, 40 μl chromogenic reagent dissolved in acid is added into 40 μl non-protein hepatocyte lysate, and added with 40 μl NaOH (30%), 40 μl color developer and buffer solution to form a mixed solution. Next, the mixed solution is shaken gently, and placed in room temperature for 10 m. Finally, a spectrometer (ELISA microplate reader, μQuant, Bio-Tek instruments, Inc., Winooski, Vt., USA) is used to detect the absorbance at wavelength 412 nm, and compared with a GSH absorbance curve of known concentration to judge the content of GSH. Similarly, the content of glutathione in the experimental mouseserum can be measured.

nitric oxide = assay: Griess nitrite test, nitric oxide generation in alcohol-treated HepG2 cells; assay type: cell-based, human; conditions: 1, 5, 10 μg/ml, 1 h before 100 mM alcohol for 24 h; dose-dependent; effect equivalent to curcumin 10 μg/ml
Experimental: as §1
The content of reactive oxygen species and nitric oxide in the tested culture solution of HepG2 cells is measured (refer to preferred embodiment 1 [Test of accumulation of reactive oxygen species in cells] and [Griess nitrite test]). […]

HepG2 cells [5] = assay: Content of ALT and AST in culture solution of alcohol-treated HepG2 cells; assay type: cell-based, human; conditions: 1, 5, 10 μg/ml, 1 h before 100 mM alcohol for 24 h; dose-dependent; effect equivalent to curcumin 10 μg/ml
Experimental: as §4
(§6) The aforementioned HepG2 cells cultivated normally are grouped, and then separately cultivated 1 h together with 0, 1, 5, 10 μg/ml lucidone (0 μg/ml, negative control group) or 10 μg/ml curcumin (curcumin, a known antioxidation compound, taken as a positive control group), and then alcohol (100 mM) is added for 24 h cultivation to stimulate oxidation stress. The experiment groups and control groups are configured in Table 1:
as §2

[6] = tested on: mouse suffered by hepatitis arising from alcohol; assay: Content of GSH and MDA in serum and tissue, mouse model of hepatitis arising from alcohol; assay type: in vivo; conditions: lucidone 100 mg/Kg/day i.p. 7 d, mean ± SD; for GSH in tissue / MDA in tissue: liver tissue
Source text: as §3
A currently available lipid peroxidation test kit (Oxford Biomedical Research, Oxford, Mich., USA) is used to measure the degree of lipid peroxidation. In brief, the cells are lysed by 200 μl cell lysis buffer. Then, 140 μl cell lysate is mixed with 455 μl N-methyl-2-phenylindole dissolved in acetonitrile and 105 μl acid (HCL, 37%), and placed in 45° C. for 60 m. malondialdehyde (MDA) is a main product of polyunsaturated fatty acid lysed by peroxidation. In this experiment, N-methyl-2-phenylindole is used to generate stable chromophore through reaction with MDA, and the formation of MDA is measured under maximum absorbance wavelength 535 nm as an index of measuring lipid peroxidation. Similarly, the degree of lipid peroxidation in the serum of experimental mouse can be measured.
A currently available GSH-96-well plate colorimetric GSH assay kit, Oxis International, Foster City, Calif., USA) is used to measure the content of glutathione (GSH). In brief, 40 μl chromogenic reagent dissolved in acid is added into 40 μl non-protein hepatocyte lysate, and added with 40 μl NaOH (30%), 40 μl color developer and buffer solution to form a mixed solution. Next, the mixed solution is shaken gently, and placed in room temperature for 10 m. […] Similarly, the content of glutathione in the experimental mouseserum can be measured.
as §5
Take out the serum and liver tissue of mouse suffered by hepatitis arising from alcohol as per aforementioned experimental design, and measure GSH content and lipid peroxidation degree as per the experimental methods in preferred embodiment 1.

Nrf-2 = Nrf-2 translocation in HepG2 cells (Western blotting of cytoplasm and nuclear extracts); assay type: cell-based, human; conditions: 1, 5, 10 μg/ml with 100 mM alcohol
Experimental: The cytosolic extracts and nuclear extracts are prepared as per the known test procedures using the currently available test kit (protocol #78833 Nuclear and Cytoplasmic Extraction Reagent kit). And, the common protein assay reagent (Bio-Rad) is used to measure the concentration of protein.
Western blotting is implemented as per the known test procedures in the relevant field, of which said anti-body and enhanced chemiluminescene regents (ECL, Pierce) are used for immunoblotting, and then an imaging device (Viogene Biotek, Sunnyvale, Calif., USA) is used for observing the results.
as §6, with “The experiment groups and control groups are configured in Table 1:” left out
HO-1 is one of ARE-driven antioxidant genes. […] In this experiment, the content of Nrf-2 in cytoplasm and nuclear extracts of tested HepG2 cells, as well as the bonding activity of Nrf-2 and ARE is measured (refer to relevant experimental methods in preferred embodiment 1).
Said content refers to the color strength of the result from Western blotting calculated by typical software in the field.

HO-1 [7] = assay: HO-1 mRNA expression in HepG2 cells (real-time PCR); assay type: cell-based, human; conditions: lucidone 1, 5, 10 μg/ml or curcumin 10 μg/ml, with 100 mM alcohol, standardized to β-actin
Experimental: Trizol reagent (Invitrogen Life Technologies, Carlsbad, Calif., USA) is used to extract total RNA of cells. One step RT-PCR is used for reverse transcription of mRNA of HO-1 and β-actin into cDNA, then real time-PCR (Applied Biosystems) is applied to real-time expression of HO-1 and β-actin.
Said real-time PCR is used to detect PCR products by combining DNA and SYBR Green. The thermal cycle is: 3 m at 96° C.; 1 m at 96° C. in 40 cycles, 30 s at 50° C. and 90 s at 72° C.

reactive oxygen species = assay: Accumulation of reactive oxygen species in alcohol-treated HepG2 cells (DCF-DA); assay type: cell-based, human; conditions: 1, 5, 10 μg/ml, 1 h before 100 mM alcohol for 24 h; dose-dependent; effect equivalent to curcumin 10 μg/ml
Experimental: A currently available DCF-DA (dihydrodichloro-fluorescein diacetate; Sigma, USA) is used to monitor the accumulation of reactive oxygen species (ROS) in cells. In brief, the cells (1×10^7) are wetted by phosphate buffer solution, and then added into 10 μm DCF-DA for 4 h cultivation at 37° C., and then fluorescence spectrophotometer is used to measure the fluorescence (488 nm/530 nm).
as §6
The content of reactive oxygen species and nitric oxide in the tested culture solution of HepG2 cells is measured (refer to preferred embodiment 1 [Test of accumulation of reactive oxygen species in cells] and [Griess nitrite test]).
FIG. 3A depicts the content of reactive oxygen species of HepG2 cells in various groups, of which the fluorescence strength of DCF-DA indicates the content of reactive oxygen species. FIG. 3B depicts the generation of nitric oxide of HepG2 cells in various groups, of which nitrite generation indicates the generation of nitric oxide.

[8] = intra-peritoneal injection alcohol (80%, 1 ml/Kg, 3 doses every 12 h)
[9] = orally taking alcohol (80%, 1 ml/Kg, 3 doses every 12 h)
[10] = intra-peritoneal injection alcohol

COC1=CC(=O)C(=C(O)/C=C/c2ccccc2)C1=O [lucidone]
content of TNF-α in cell culture solution (tumor necrosis factor-α): reduced the phenomenon of growing content | ALT in serum [1, 8]: 103.0 ± 65.6 U/L | AST in serum [1, 8]: 139.6 ± 12.2 U/L | TNF-α in serum [1, 8]: 3.91 ± 0.28 ng/mL | nitric oxide in serum [1, 8]: 102.3 ± 0.52 nM/mL | ALT in serum [1, 9]: 875.4 ± 57.2 U/L | AST in serum [1, 9]: 508.0 ± 31.7 U/L | TNF-α in serum [1, 9]: 10.0 ± 0.28 ng/mL | nitric oxide in serum [1, 9]: 370.6 ± 0.53 nM/mL | lipid peroxidation in the cells caused by alcohol (HepG2 cells [2]): reduce greatly | expression of HO-1 protein in the cells (HO-1 [3]): substantial increase | bonding activity of Nrf-2 and ARE (Nrf-2 and ARE): improve significantly the bonding activity | decline of GSH concentration in the cells caused by alcohol (HepG2 cells [4]): can be avoided | generation of nitric oxide caused by alcohol (nitrite) (nitric oxide): reduced the generation | content of ALT in cell culture solution (HepG2 cells [5]): reduced the phenomenon of growing content | content of AST in cell culture solution (HepG2 cells [5]): reduced the phenomenon of growing content | GSH in tissue [6, 10]: 173.9 ± 58.5 nmol/mg of protein | MDA in tissue [6, 10]: 20.9 ± 0.71 nmol/mg of protein | GSH in serum [6, 10]: 42.9 ± 1.8 nmol/mg of protein | MDA in serum [6, 10]: 16.2 ± 0.77 nmol/mg of protein | GSH in tissue ([6]; orally taking alcohol): 261.2 ± 11.1 nmol/mg of protein | MDA in tissue ([6]; orally taking alcohol): 69.2 ± 0.67 nmol/mg of protein | GSH in serum ([6]; orally taking alcohol): 30.5 ± 1.0 nmol/mg of protein | MDA in serum ([6]; orally taking alcohol): 19.5 ± 0.41 nmol/mg of protein | Nrf-2 translocation (Nrf-2 content in nucleus) (Nrf-2): facilitate Nrf-2 translocation | expression of HO-1 mRNA in the cells (HO-1 [7]): substantial increase | generation of reactive oxygen species caused by alcohol (reactive oxygen species): reduced the generation

COc1cc(/C=C/C(=O)CC(=O)/C=C/c2ccc(O)c(OC)c2)ccc1O [curcumin, reference compound]
lipid peroxidation in the cells caused by alcohol (HepG2 cells [2]): reduce greatly | expression of HO-1 protein in the cells (HO-1 [3]): substantial increase | decline of GSH concentration in the cells caused by alcohol (HepG2 cells [4]): can be avoided | expression of HO-1 mRNA in the cells (HO-1 [7]): substantial increase
